Source: PMC8689007, “In Silico Prediction and Bioactivity Evaluation of Chemical Ingredients Against Influenza A Virus From Isatis tinctoria L” (Frontiers in Pharmacology, 2021)
Values after ≈ are worked out from the molar mass of the structure shown. Values joined by “and” are separate entries in the source; they are usually repeats but may differ in a detail not shown here. Identical values can stand only once. Like-named read-outs stand apart in the source and are kept apart here.

Assays:
[1] = tested on: A/HebeiXinhua/SWL1106/2017 (oseltamivir- and amantadine-resistant H1N1); assay: microbe, parasite or virus in culture; conditions: Influenza A virus, H1N1, MDCK
[2] = tested on: A/HebeiXinhua/SWL1106/2017 (oseltamivir- and amantadine-resistant H1N1)

CCOC(=O)C1=C[C@@H](OC(CC)CC)[C@H](NC(C)=O)[C@@H](N)C1 [Oseltamivir]
IC50 [1]: > 100 µg/mL

NC12CC3CC(CC(C3)C1)C2 [Amantadine]
IC50 [1]: > 100 µg/mL

COc1ccc(-c2cc(=O)c3c(O)c(OC)c(OC)cc3o2)cc1O [Eupatorin]
IC50 [2]: 87.17 ± 5.23 µg/mL and 69.16 ± 2.12 µg/mL and 89.29 ± 5.22 µg/mL | IC50 [1]: 71.8 ± 6.58 µg/mL (≈ 209 µM)

COc1c(O)cc2oc(-c3ccc(O)cc3)cc(=O)c2c1O [Dinatin]
SI, selection index (TC50/IC50) (A/PR/8/34 (H1N1)): >2.66
